Our source for the AC50 values is ChEMBL document CHEMBL5291721, “A preclinical secondary pharmacology resource illuminates target-adverse drug reaction associations of marketed drugs” (Nat Commun, 2023).

The target in test [1] is T1, Muscarinic acetylcholine receptor M2 (Homo sapiens, UniProt P08172).
T1 sequence (P08172 whole entry): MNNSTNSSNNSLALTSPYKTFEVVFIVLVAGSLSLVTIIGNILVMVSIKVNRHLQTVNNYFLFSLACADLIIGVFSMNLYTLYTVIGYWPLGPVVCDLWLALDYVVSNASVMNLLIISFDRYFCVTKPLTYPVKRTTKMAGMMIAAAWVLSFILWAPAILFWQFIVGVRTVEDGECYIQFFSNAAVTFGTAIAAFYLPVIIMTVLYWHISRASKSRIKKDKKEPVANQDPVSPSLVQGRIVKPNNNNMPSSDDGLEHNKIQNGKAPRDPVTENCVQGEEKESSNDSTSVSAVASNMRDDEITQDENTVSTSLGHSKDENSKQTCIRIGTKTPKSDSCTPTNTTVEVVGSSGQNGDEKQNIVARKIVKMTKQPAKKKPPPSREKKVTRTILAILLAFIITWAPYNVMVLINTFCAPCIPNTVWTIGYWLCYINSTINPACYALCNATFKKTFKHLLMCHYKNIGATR

Test [2] addresses T2, Amine oxidase [flavin-containing] A (Homo sapiens, UniProt P21397).
T2 sequence (P21397 whole entry): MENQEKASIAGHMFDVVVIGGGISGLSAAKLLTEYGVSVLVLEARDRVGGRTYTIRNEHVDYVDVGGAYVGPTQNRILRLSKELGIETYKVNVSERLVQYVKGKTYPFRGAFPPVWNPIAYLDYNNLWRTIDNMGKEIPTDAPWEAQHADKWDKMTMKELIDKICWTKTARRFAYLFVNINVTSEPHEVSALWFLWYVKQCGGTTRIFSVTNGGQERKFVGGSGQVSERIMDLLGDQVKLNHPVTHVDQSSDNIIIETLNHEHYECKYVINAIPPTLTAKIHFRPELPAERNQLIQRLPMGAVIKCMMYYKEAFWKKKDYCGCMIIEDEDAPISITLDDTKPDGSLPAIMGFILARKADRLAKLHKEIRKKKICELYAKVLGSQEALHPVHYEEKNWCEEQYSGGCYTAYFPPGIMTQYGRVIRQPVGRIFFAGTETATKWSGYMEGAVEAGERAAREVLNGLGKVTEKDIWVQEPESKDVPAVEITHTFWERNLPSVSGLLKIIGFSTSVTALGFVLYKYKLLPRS
It is filed as functional.

The target of the next test is T3, Thromboxane A2 receptor (Homo sapiens, UniProt P21731).
T3 sequence (P21731 whole entry): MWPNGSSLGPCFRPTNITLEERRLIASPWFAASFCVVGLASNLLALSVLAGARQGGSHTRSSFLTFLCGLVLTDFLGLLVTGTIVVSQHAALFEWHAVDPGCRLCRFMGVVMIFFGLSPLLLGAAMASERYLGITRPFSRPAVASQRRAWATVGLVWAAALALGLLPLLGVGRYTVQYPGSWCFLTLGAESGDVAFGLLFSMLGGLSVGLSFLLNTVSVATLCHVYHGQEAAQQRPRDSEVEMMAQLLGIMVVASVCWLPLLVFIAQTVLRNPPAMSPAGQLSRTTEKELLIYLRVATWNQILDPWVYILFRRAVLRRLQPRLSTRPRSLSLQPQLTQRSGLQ
The test is classed as functional, cell-based.

A further test addresses Mu-type opioid receptor (Homo sapiens, UniProt P35372).
A further test has as its target T4, Adenosine receptor A3 (Homo sapiens, UniProt P0DMS8).
T4 sequence (P0DMS8 whole entry): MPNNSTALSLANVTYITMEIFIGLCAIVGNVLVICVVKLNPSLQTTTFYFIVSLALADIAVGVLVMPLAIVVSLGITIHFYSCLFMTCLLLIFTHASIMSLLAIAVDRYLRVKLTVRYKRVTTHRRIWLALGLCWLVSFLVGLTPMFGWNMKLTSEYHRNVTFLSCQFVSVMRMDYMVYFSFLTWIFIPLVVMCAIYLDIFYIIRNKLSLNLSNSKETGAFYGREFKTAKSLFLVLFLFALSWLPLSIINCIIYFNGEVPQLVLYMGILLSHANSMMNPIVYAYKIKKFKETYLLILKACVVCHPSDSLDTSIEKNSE

Test [3] has as its target T5, Prostaglandin G/H synthase 1 (Homo sapiens, UniProt P23219). It is filed as functional.
Another test deals with Prothrombin (Homo sapiens, UniProt P00734). The test is classed as functional.
Test [4] deals with Voltage-gated inwardly rectifying potassium channel KCNH2 (Homo sapiens, UniProt Q12809). It is filed as functional. As to conditions: read-out: AC50.
Sequence of Voltage-gated inwardly rectifying potassium channel KCNH2 (Q12809 whole entry): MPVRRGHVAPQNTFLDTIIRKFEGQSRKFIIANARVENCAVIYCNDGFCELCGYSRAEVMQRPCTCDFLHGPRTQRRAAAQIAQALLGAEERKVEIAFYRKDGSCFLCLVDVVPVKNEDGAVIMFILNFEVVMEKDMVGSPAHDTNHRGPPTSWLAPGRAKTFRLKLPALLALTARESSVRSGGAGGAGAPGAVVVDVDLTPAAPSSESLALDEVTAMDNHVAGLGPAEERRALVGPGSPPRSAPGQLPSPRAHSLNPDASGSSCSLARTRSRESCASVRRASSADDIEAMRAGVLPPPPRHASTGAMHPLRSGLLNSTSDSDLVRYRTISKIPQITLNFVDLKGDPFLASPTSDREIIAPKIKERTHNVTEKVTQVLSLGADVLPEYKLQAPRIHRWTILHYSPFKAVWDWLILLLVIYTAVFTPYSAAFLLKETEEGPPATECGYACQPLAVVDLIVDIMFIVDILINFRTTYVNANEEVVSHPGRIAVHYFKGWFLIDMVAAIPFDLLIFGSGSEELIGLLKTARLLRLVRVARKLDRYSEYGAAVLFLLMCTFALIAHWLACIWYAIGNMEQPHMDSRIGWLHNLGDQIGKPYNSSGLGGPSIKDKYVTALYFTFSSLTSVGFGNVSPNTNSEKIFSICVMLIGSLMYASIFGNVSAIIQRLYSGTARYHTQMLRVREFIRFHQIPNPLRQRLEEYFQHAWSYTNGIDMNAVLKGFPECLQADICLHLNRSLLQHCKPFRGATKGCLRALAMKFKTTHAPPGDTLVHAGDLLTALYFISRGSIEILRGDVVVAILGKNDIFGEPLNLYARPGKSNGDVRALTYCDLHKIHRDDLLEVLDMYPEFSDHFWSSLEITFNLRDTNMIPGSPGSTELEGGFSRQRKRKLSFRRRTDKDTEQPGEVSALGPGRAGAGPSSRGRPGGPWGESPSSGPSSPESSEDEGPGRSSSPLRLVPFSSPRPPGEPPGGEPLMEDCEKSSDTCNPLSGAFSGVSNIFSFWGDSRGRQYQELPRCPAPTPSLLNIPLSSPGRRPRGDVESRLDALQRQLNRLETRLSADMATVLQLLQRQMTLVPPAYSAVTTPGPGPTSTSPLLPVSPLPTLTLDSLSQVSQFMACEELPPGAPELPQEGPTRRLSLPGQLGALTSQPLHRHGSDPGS
Test [5] has as its target 5-hydroxytryptamine receptor 2B (Homo sapiens, UniProt P41595). It is filed as functional, cell-based.
The target in test [6] is T5, Prostaglandin G/H synthase 1. It is filed as functional. The source holds these as a separate data set.
The target in test [7] is Vascular endothelial growth factor receptor 2 (Homo sapiens, UniProt P35968). It is filed as functional.
Test [8] addresses T6, Alpha-2A adrenergic receptor (Homo sapiens, UniProt P08913).
T6 sequence (P08913 whole entry): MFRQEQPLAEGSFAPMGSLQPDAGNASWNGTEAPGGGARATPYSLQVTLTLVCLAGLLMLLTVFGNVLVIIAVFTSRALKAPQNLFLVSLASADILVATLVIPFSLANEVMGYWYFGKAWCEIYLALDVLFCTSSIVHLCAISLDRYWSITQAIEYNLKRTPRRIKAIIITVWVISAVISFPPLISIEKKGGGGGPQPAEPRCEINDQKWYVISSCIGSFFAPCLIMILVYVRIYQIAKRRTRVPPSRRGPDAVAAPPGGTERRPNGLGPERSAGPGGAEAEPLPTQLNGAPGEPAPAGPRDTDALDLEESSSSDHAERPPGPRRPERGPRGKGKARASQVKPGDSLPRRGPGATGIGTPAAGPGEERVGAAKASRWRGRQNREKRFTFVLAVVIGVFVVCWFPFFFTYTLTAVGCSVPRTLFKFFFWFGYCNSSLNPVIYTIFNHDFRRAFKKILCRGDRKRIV

The target in test [9] is cGMP-inhibited 3',5'-cyclic phosphodiesterase 3A (Homo sapiens, UniProt Q14432). It is filed as functional.
Sequence of cGMP-inhibited 3',5'-cyclic phosphodiesterase 3A (Q14432 whole entry): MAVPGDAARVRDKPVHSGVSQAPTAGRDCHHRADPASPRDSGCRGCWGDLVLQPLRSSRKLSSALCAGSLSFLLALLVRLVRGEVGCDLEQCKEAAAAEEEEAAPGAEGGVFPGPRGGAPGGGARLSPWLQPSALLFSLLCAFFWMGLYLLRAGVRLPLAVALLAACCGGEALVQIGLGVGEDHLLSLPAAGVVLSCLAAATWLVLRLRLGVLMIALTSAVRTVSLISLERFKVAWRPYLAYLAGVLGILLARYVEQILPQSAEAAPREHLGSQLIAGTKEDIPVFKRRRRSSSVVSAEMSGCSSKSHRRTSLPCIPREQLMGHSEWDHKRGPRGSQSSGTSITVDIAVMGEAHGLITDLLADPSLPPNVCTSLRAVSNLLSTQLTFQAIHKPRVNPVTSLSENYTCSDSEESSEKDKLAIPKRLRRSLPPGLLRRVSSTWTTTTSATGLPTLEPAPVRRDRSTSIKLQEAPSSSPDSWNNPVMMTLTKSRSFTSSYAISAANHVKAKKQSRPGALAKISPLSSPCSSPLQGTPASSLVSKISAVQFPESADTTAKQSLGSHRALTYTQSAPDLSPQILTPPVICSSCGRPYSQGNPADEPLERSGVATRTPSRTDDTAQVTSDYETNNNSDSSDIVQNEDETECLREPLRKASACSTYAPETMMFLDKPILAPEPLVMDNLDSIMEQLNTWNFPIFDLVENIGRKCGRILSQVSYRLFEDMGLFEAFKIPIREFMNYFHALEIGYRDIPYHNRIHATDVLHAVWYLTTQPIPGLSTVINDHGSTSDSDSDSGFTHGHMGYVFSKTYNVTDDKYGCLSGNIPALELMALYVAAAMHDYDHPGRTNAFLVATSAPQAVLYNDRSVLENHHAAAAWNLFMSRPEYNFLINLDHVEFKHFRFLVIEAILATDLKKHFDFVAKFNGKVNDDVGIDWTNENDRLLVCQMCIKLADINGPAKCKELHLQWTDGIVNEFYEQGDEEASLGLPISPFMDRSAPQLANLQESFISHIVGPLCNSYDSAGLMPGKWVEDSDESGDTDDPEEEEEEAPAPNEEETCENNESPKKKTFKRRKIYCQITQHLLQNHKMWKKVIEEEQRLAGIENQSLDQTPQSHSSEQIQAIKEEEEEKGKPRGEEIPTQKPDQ
A further test concerns the target Acetylcholinesterase (Homo sapiens, UniProt P22303). The test is classed as functional.
A further test deals with Histamine H3 receptor (Homo sapiens, UniProt Q9Y5N1).
Sequence of Histamine H3 receptor (Q9Y5N1 whole entry): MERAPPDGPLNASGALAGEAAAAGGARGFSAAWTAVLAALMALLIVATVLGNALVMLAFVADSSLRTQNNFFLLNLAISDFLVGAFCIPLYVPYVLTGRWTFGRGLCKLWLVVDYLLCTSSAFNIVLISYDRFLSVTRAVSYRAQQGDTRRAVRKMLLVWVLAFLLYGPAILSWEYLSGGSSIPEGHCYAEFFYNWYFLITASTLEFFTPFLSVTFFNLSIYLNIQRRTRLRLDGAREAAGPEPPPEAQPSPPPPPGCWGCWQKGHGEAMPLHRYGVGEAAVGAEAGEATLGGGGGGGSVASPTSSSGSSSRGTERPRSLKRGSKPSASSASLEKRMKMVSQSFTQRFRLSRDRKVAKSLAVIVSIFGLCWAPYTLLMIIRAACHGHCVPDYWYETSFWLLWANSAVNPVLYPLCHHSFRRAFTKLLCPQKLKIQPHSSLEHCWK
Also: assay procedure not described here.

Sequence of Mu-type opioid receptor (P35372 whole entry): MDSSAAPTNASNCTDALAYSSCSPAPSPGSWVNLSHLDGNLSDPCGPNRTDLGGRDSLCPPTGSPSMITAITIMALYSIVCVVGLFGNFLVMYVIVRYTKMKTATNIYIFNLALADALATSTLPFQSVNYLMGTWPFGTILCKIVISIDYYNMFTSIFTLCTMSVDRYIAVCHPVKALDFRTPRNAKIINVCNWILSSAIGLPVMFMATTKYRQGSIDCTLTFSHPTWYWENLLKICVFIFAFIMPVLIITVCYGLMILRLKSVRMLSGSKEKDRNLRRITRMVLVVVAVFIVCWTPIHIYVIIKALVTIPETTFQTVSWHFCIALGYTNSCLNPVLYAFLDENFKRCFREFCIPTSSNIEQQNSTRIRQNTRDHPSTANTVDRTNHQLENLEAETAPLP
Sequence of 5-hydroxytryptamine receptor 2B (P41595 whole entry): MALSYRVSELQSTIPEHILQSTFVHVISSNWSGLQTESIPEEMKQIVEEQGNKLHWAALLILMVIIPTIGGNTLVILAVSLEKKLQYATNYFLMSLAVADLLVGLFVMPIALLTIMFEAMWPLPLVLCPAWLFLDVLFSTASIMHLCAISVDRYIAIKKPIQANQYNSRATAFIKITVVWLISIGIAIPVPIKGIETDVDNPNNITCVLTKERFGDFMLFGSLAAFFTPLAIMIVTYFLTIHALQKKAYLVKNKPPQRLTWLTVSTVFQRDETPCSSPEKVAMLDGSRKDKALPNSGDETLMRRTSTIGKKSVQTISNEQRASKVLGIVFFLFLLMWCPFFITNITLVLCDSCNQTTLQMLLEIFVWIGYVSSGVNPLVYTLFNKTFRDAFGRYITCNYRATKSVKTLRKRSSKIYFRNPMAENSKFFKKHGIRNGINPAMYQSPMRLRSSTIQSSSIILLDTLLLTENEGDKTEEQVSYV
T5 sequence (P23219 whole entry): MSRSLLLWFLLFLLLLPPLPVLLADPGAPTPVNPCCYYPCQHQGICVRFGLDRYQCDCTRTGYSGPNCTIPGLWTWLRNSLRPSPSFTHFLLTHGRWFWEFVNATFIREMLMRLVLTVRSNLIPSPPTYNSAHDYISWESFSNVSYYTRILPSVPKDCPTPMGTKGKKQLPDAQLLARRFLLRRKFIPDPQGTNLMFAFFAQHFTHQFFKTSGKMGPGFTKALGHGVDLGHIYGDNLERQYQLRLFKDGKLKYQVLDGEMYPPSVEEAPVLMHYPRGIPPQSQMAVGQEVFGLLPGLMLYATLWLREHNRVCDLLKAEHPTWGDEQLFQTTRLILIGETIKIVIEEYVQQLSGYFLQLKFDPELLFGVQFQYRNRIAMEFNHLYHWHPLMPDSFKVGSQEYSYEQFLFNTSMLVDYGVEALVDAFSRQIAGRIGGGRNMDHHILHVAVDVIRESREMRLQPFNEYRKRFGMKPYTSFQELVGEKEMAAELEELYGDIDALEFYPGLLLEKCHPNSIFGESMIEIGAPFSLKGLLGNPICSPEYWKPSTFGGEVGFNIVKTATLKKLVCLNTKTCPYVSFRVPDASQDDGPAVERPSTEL
Sequence of Acetylcholinesterase (P22303 whole entry): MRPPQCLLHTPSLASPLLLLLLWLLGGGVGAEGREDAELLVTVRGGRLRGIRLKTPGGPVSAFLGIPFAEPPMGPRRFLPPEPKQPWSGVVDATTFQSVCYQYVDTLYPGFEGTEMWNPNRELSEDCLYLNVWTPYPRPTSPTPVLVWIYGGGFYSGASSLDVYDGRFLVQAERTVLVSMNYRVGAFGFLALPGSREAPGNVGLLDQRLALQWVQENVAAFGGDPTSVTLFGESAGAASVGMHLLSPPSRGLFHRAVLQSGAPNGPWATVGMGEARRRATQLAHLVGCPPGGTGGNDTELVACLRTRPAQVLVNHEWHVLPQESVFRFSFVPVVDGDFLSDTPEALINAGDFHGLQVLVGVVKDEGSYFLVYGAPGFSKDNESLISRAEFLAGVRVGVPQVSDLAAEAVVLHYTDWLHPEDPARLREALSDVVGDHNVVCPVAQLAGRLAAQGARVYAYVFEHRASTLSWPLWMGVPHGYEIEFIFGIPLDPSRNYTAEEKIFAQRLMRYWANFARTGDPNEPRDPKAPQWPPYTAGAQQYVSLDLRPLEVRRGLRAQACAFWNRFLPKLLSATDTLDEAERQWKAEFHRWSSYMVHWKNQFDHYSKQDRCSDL

For the compound `CC(=O)Oc1c(C)c(C)c2c(c1C)CC[C@@](C)(CCC[C@H](C)CCC[C@H](C)CCCC(C)C)O2`, the AC50 (in test [1]; in test [2]; on Thromboxane A2 receptor; at Mu-type opioid receptor; at Adenosine receptor A3; in [3]) was above 30 µM each time. Besides, the AC50 (at Prothrombin; in test [4]; in test [5]; in [6]; in test [7]; in test [8]) was above 30 µM in each case. The AC50 (commonly the concentration giving half of the maximal activity seen) in test [9] is 0.933 µM; at Acetylcholinesterase it was above 30 µM; on Histamine H3 receptor, above 30 µM.
For `CC[C@@H](C(N)=O)N1CCCC1=O`, the AC50 (in test [1]; in test [2]; on Thromboxane A2 receptor; on Mu-type opioid receptor; on Adenosine receptor A3; in [3]) was above 30 µM throughout. In addition, the half-maximal activity concentration (AC50) (on Prothrombin; in test [4]; in test [5]; in test [6]; in [7]; in [8]) was above 30 µM in each case. The AC50 (in [9]; at Acetylcholinesterase; at Histamine H3 receptor) was above 30 µM in each case.
On to `CC(=O)[C@@]1(O)CC[C@H]2[C@@H]3C=C(C)C4=CC(=O)CC[C@]4(C)[C@H]3CC[C@@]21C`, for which the AC50 (in test [1]; in test [2]; on Thromboxane A2 receptor; at Mu-type opioid receptor; on Adenosine receptor A3; in [3]) was above 30 µM in each case. Further, the AC50 (on Prothrombin; in [4]; in test [5]; in test [6]; in test [7]; in test [8]) was above 30 µM each time. Further, the AC50 (in test [9]; on Acetylcholinesterase; on Histamine H3 receptor) was above 30 µM throughout.
Turning to `CCOC(=O)[C@H](CCc1ccccc1)N[C@@H](C)C(=O)N1CC2(C[C@H]1C(=O)O)SCCS2`, the concentration at half-maximal activity (AC50) (in test [1]; in test [2]; at Thromboxane A2 receptor; on Mu-type opioid receptor; on Adenosine receptor A3; in test [3]) was above 30 µM each time. Moreover, the AC50 at Prothrombin is above 30 µM; in test [4], above 30 µM; in test [5] it was above 30 µM; in [6], above 30 µM; in test [7], above 10 µM; in test [8], above 30 µM. The half-maximal activity concentration (AC50) (in [9]; at Acetylcholinesterase; at Histamine H3 receptor) was above 30 µM throughout.
In the case of `NC(=O)C[C@H](N)C(=O)O` [ASPARAGINE], the half-maximal activity concentration (AC50) (in test [1]; in test [2]; on Thromboxane A2 receptor; on Mu-type opioid receptor; at Adenosine receptor A3; in test [3]) was above 30 µM in each case. Moreover, the AC50 (at Prothrombin; in test [5]; in test [6]; in [7]; in test [8]; in test [9]) was above 30 µM throughout. Further, the AC50 on Acetylcholinesterase and on Histamine H3 receptor was above 30 µM throughout.
As for `CC1=C(/C=C/C(C)=C/C=C/C(C)=C/C=C/C=C(C)/C=C/C=C(C)/C=C/C2=C(C)CCCC2(C)C)C(C)(C)CCC1` [BETA CAROTENE], the AC50 was above 30 µM in test [1]; above 30 µM in test [2]; above 30 µM on Thromboxane A2 receptor; above 30 µM on Mu-type opioid receptor; above 30 µM on Adenosine receptor A3; 8.1 µM in test [3]. For the same compound, the AC50 is above 30 µM at Prothrombin; above 30 µM in test [5]; 5.22 µM in test [6]; above 30 µM in test [7]; above 30 µM in [8]; above 30 µM in test [9]. For the same compound, the AC50 at Acetylcholinesterase and on Histamine H3 receptor was above 30 µM each time.
`COc1ccc(C(=O)Nc2ccccc2CCC2CCCCN2C)cc1` (stereo not given) [ENCAINIDE]: the AC50 (in test [1]; in [2]; at Thromboxane A2 receptor; at Mu-type opioid receptor; at Adenosine receptor A3; in test [3]) was above 30 µM throughout. The AC50 (at Prothrombin; in test [5]; in test [6]; in test [7]; in [8]; in test [9]) was above 30 µM each time. Moreover, the AC50 on Acetylcholinesterase and on Histamine H3 receptor was above 30 µM throughout.
In the case of `NC1=NCC2c3ccccc3Cc3ccccc3N12` (stereo not given) [EPINASTINE], the AC50 in test [1] is above 30 µM; in [2], above 30 µM; on Thromboxane A2 receptor, above 30 µM; on Mu-type opioid receptor it was 17.4 µM; at Adenosine receptor A3, above 30 µM; in test [3] it was above 30 µM. In addition, the AC50 is above 30 µM at Prothrombin; above 30 µM in test [5]; above 30 µM in test [6]; above 30 µM in [7]; 0.253 µM in [8]; above 30 µM in test [9]. Moreover, the AC50 on Acetylcholinesterase and at Histamine H3 receptor was above 30 µM each time.
Take `Cc1cc(OP(=O)(O)O)c2ccccc2c1OP(=O)(O)O` [MENADIOL SODIUM DIPHOSPHATE]: the AC50 (in test [1]; in test [2]; on Thromboxane A2 receptor; at Mu-type opioid receptor; on Adenosine receptor A3; in test [3]) was above 30 µM each time. Further, the AC50 (on Prothrombin; in test [5]; in test [6]; in test [7]; in test [8]; in [9]) was above 30 µM throughout. Further, the AC50 on Acetylcholinesterase and at Histamine H3 receptor was above 30 µM in each case.
